These results are taken from patent US6458834B2, “Pentacyclic triterpenes” (Micro Flo Company, priority 1998, dated 2002).

Like-named read-outs stand apart in the source and are kept apart here.

One data set concerns the target T1, human leucocyte elastase (Homo sapiens, UniProt P08246).
T1 construct: purchased Elastin Products
T1 sequence (P08246 30-267): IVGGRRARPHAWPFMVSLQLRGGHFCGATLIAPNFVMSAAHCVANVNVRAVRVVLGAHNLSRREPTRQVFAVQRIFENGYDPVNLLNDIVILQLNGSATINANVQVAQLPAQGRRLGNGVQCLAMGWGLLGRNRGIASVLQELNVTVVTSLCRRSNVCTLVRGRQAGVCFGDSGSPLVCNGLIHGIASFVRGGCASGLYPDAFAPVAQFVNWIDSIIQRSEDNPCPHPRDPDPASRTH
Description: Human leucocyte elastase (HLE) inhibition, MeO-Suc-Ala-Ala-Pro-Val-pNA substrate. Format: biochemical. The method, then: Stock solutions were mixed to yield a reaction mixture consisting of 0.5 mM MeO-Suc-Ala-Ala-Pro-Val-pNA (Sigma) and […] human leucocyte elastase (Elastin Products) in 0.1 M Tris, 0.5 M NaCl and 3% DMSO (v/v) at a pH of 7.5. Test compounds were solubilized in DMSO. Equal volumes of enzyme and inhibitor were mixed and allowed to incubate for 15 minutes at room temperature. The reaction was started by the addition of a third equal volume containing substrate. Reactions were carried out in microliter plates.

The next data set addresses T2, trypsin (Bos taurus, UniProt P00760).
T2 construct: gene PRSS1
T2 sequence (P00760 24-246): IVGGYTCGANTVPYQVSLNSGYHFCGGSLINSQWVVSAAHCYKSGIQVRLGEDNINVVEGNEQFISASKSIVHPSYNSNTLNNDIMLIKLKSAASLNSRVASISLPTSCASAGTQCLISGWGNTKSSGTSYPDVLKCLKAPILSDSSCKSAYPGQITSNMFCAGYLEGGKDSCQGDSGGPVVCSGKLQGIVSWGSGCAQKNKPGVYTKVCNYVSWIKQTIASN
As to the kind of experiment: trypsin assay. It counts as biochemical. The text has this: (§1) Thus, PTs appear to bind non-covalently to hydrophobic domains of enzymes and either block an access to the enzyme active site or cause conformational change, both resulting in the enzyme's inability to perform its function.

The target in a further data set is thrombin (Homo sapiens, UniProt P00734). As to the kind of experiment: thrombin assay. It counts as biochemical.
Source text: as §1

The next data set has as its target urokinase (Homo sapiens, UniProt P00749). Description: urokinase assay. Format: biochemical. As to conditions: for inhibition at 22 µM: measured at 22 μM.
Source text: as §1

The next data set deals with plasmin (Homo sapiens, UniProt P00747). Description: plasmin assay. Format: biochemical. As to conditions: for inhibition at 22 µM: measured at 22 μM.
Source text: as §1

The test system of the next data set is mites. As to conditions: cited from earlier work.
The mark [1] stands for this setting: 0.1 M Tris, 0.5 M NaCl, 3% DMSO, pH 7.5, 15 min preincubation at room temperature, read-out: IC50.

plasmin, sequence (P00747 581-810 limits assumed, species assumed): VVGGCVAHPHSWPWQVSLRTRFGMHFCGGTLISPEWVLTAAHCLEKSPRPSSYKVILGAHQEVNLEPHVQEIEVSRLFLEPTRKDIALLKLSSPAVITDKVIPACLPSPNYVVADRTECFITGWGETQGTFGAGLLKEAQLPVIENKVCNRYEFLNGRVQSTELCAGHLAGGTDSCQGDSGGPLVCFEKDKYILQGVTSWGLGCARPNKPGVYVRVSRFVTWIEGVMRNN
plasmin, sequence (P00747 97-580 partner limits assumed, species assumed): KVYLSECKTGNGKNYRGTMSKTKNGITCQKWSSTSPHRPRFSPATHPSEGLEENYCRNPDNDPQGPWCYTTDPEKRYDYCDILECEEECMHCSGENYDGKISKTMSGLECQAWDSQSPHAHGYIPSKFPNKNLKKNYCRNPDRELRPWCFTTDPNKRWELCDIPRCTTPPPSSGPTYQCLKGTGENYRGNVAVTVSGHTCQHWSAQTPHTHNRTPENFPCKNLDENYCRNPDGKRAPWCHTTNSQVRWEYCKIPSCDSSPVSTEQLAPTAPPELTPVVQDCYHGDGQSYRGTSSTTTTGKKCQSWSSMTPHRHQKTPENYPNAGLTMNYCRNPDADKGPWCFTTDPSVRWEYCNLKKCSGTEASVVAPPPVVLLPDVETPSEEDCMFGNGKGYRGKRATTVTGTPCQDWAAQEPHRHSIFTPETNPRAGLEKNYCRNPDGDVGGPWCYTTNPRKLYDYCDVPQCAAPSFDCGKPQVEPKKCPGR

One may read the IC50 as the concentration at which inhibition is half-maximal. `C=C(C)[C@@H]1CC[C@]2(C)CC[C@]3(C)[C@H](CC[C@@H]4[C@@]5(C)CC[C@H](O)C(C)(C)[C@@H]5CC[C@]43C)[C@@H]12` [Example 5, Lupeol] displayed an IC50 on human leucocyte elastase of 8.4 µM. The same measure, in the same setting: under `C=C(C)[C@@H]1CC[C@]2(CO)CC[C@]3(C)[C@H](CC[C@@H]4[C@@]5(C)CC[C@H](O)C(C)(C)[C@@H]5CC[C@]43C)[C@@H]12` [Example 7, Betulin] stands 5 µM. Take `C=C(C)[C@@H]1CC[C@]2(COC(=O)CCC(=O)O)CC[C@]3(C)[C@H](CC[C@@H]4[C@@]5(C)CC[C@H](O)C(C)(C)[C@@H]5CC[C@]43C)[C@@H]12` [Example 8, 28-Succinylbetulin]: the IC50 at human leucocyte elastase (setting [1]) worked out at 6.3 µM. For `C=C(C)[C@@H]1CC[C@]2(C(=O)O)CC[C@]3(C)[C@H](CC[C@@H]4[C@@]5(C)CC[C@H](O)C(C)(C)[C@@H]5CC[C@]43C)[C@@H]12` [Example 9, Betulinic acid], the IC50 on human leucocyte elastase (setting [1]) is 3.3 µM; against trypsin, 8.5 µM; on thrombin, 2.3 µM; at urokinase it was 5 µM; against plasmin, 6.2 µM. Regarding `C=C(C)[C@@H]1CC[C@]2(C(=O)OC)CC[C@]3(C)[C@H](CC[C@@H]4[C@@]5(C)CC[C@H](O)C(C)(C)[C@@H]5CC[C@]43C)[C@@H]12` [Example 10, Methyl ester of betulinic acid], the 50% inhibitory concentration (IC50) on human leucocyte elastase (setting [1]) is 5.7 µM. In turn, `C=C(C)C1CCC2(C(=O)O)CCC3(C)C(CCC4C5(C)CCC(OC(C)=O)C(C)(C)C5CCC43C)C12` (stereo not shown) [Example 11, Acetylbetulinic acid] returned a half-inhibitory concentration (IC50) at human leucocyte elastase of 7 µM. Consider `C=C(C)[C@@H]1CC[C@]2(C(=O)O)CC[C@]3(C)[C@H](CC[C@@H]4[C@@]5(C)CCC(=O)C(C)(C)[C@@H]5CC[C@]43C)[C@@H]12` [Example 12, 3-Ketobetulinic acid], for which the IC50 on human leucocyte elastase (setting [1]) is 11 µM.

As a reminder, the melting point is the temperature of the solid-liquid transition. Regarding `C=C(C)C1CCC2(C(=O)O)CCC3(C)C(CCC4C5(C)CCC(OS(C)(=O)=O)C(C)(C)C5CCC43C)C12` (stereo not shown) [Example 13, Methanesulfonylbetulinic acid], the melting point is 210 to 212 °C. This compound also returned an IC50 against human leucocyte elastase of 11.2 µM.

Take `C=C(C)C1CCC2(C(=O)OC)CCC3(C)C(CCC4C5(C)CCC(OS(C)(=O)=O)C(C)(C)C5CCC43C)C12` (stereo not shown) [Example 14, Methyl ester of 3-methanesulfonylbetulinic acid]: the IC50 at human leucocyte elastase (setting [1]) turned out to be 7.3 µM. Regarding `CC1(C)CC[C@]2(C)CC[C@]3(C)C(=CC[C@@H]4[C@@]5(C)CC[C@H](O)C(C)(C)[C@@H]5CC[C@]43C)[C@@H]2C1` [Example 15, β-Amyrin], the IC50 on human leucocyte elastase (setting [1]) turned out to be 5.4 µM. Regarding `C[C@H]1[C@H](C)CC[C@]2(CO)CC[C@]3(C)C(=CC[C@@H]4[C@@]5(C)CC[C@H](O)C(C)(C)[C@@H]5CC[C@]43C)[C@H]12` [Example 16, Uvaol], the IC50 at human leucocyte elastase was 4.5 µM.

Usually inhibition stands for the relative decrease from the control value, in per cent. In turn, `C[C@H]1[C@H](C)CC[C@]2(C(=O)O)CC[C@]3(C)C(=CC[C@@H]4[C@@]5(C)CC[C@H](O)C(C)(C)[C@@H]5CC[C@]43C)[C@H]12` [Example 17, Ursolic acid] had a 50% inhibitory concentration (IC50) against human leucocyte elastase of 7.7 µM. Moreover, the results for the inhibition at 22 µM against urokinase and on plasmin were 83% and 43%, respectively. For the same compound, the “effects towards the mites and their survival” value with mites was “toxicity and feeding deterrent effects”. In addition, in the data set on mites (diet containing ursolic acid), the “reduction of ingestion time on diet containing ursolic acid” value is reported as “about 30%”. For the compound `COC(=O)[C@]12CC[C@@H](C)[C@H](C)[C@H]1C1=CC[C@@H]3[C@@]4(C)CC[C@H](O)C(C)(C)[C@@H]4CC[C@@]3(C)[C@]1(C)CC2` [Example 18, Ursolic acid, Me ester], on human leucocyte elastase (setting [1]), the IC50 is 4.9 µM.

Turning to `CC1(C)CC[C@]2(C(=O)O)CC[C@]3(C)C(=CC[C@@H]4[C@@]5(C)CC[C@H](O)C(C)(C)[C@@H]5CC[C@]43C)[C@@H]2C1` [Example 20, Oleanolic acid], the inhibition at 22 µM against urokinase is 40%; on plasmin, 25%.

`COC(=O)[C@]12CCC(C)(C)C[C@H]1C1=CC[C@@H]3[C@@]4(C)CC[C@H](O)C(C)(C)[C@@H]4CC[C@@]3(C)[C@]1(C)CC2` [Example 21, Oleanolic acid, Me ester]: at human leucocyte elastase (setting [1]), the IC50 was determined as 8.5 µM. At human leucocyte elastase, `CC1(C)CC[C@]2(C(=O)O)CC[C@]3(C)C(=CC[C@@H]4[C@@]5(C)CC[C@H](O)[C@@](C)(CO)[C@@H]5CC[C@]43C)[C@@H]2C1` [Example 23, Hederagenin] registered a concentration for half-maximal inhibition (IC50) of 16.8 µM.

With `CC1(C)CC[C@]2(C(=O)O)[C@H](O)C[C@]3(C)C(=CC[C@@H]4[C@@]5(C)CC[C@H](O)[C@@](C)(CO)[C@@H]5CC[C@]43C)[C@@H]2C1` [Example 24, Caulophyllogenin], the “inhibition of HLE at a single concentration” value against human leucocyte elastase (@ 21°) stood at 0% @ 21°. For the compound Lupeol acetate [Example 6], the half-inhibitory concentration (IC50) at human leucocyte elastase (setting [1]) was determined as 14.9 µM.
